Results taken from the NIST ThermoML archive (doi:10.1021/acs.jced.5b00154).
± gives the expanded uncertainty stated by the source.

Details: 101.33 kPa, Liquid, Vibrating tube method

## [2H]O[2H] [water-d2]
278.15 K
  mass density: 1105.53 ± 0.08 kg/m3
288.15 K
  mass density: 1105.77 ± 0.08 kg/m3
298.15 K
  mass density: 1104.36 ± 0.079 kg/m3
308.15 K
  mass density: 1101.63 ± 0.079 kg/m3
318.15 K
  mass density: 1097.84 ± 0.078 kg/m3
